Measurements taken from US5686454A, “Camphorcarbonyl” (Merck & Co., Inc., priority 1996, dated 1997).

These compounds were tested against T1, uterine OT receptors (Rattus norvegicus, UniProt P70536) (assay: Radioligand binding: competition of [^3 H]oxytocin binding to rat uterine membranes). Details: 1 nM [^3 H]OT, rat uterus membranes, 60 minutes, 22° C., pH 7.4; read-out: IC50.
T1 construct: crude membrane preparation of uteri; from tissue; host or cells: uterus of DES-treated rats, crude membranes
T1 sequence (P70536 1-388): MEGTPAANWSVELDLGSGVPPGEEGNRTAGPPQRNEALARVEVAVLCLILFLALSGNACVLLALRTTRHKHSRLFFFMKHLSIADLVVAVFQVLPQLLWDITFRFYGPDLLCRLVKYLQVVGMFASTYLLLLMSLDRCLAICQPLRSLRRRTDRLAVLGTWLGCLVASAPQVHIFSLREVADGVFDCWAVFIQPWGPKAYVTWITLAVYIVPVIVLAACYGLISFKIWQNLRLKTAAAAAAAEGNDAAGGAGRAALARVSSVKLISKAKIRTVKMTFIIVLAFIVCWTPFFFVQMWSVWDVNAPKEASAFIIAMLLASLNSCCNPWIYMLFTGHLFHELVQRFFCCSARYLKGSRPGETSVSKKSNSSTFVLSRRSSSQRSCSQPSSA
From the text: RADIOGLIGAND BINDING ASSAYS
The high affinity binding of [^3 H]

SMILES	IC50 [µM]
COC(=O)CCN1CCC[C@H]1C(=O)NCC(C)C1(O)CC2CCC1(CS(=O)(=O)N1CCN(c3ccccc3C)CC1)C2(C)C (stereo partly drawn) [Example 81, 1-((7,7-Dimethyl-2-exo-hydroxy-2-endo-2-(1-(1--N -(methoxycarbonylethyl)prolyl)amino)propylbicyclo-(2.2.1)heptan-1-yl)methanesulfonyl)-4-(2-methyl-phenyl)piperazine]	0.02
Cc1ccccc1N1CCN(C(=O)C2C3CCC(C)(C2NC(=O)[C@@H]2CCCN2)C3(C)C)CC1 (stereo partly drawn) [Example 15, 1-(2-methylphenyl)-4-[(4,7,7-trimethyl-3-prolylaminobicyclo[2.2.1]hept-2-yl)carbonyl]-piperazine]	0.06
Cc1ccccc1N1CCN(S(=O)(=O)CC23CCC(CC2NC(=O)[C@H](CCS(C)(=O)=O)NC(=O)Cc2c[nH]cn2)C3(C)C)CC1 (stereo partly drawn) [Example 73, 1-((7,7-Dimethyl-2-endo-(2S-(imidazol-4-ylacetyl-amino)-4-(methylsulfonyl)butyramido)-bicyclo(2.2.1)-heptan-1-yl)methanesulfonyl)-4-(2-methylphenyl)-piperazine]	0.0054
CCOC(=O)CCCN1CCC[C@H]1C(=O)NCC(C)[C@@]1(O)C[C@H]2CC[C@]1(CS(=O)(=O)N1CCN(c3ccccc3C)CC1)C2(C)C (stereo partly drawn) [Example 41, 1-((7,7-Dimethyl-2-exo-hydroxy-2-endo-2-(1-(1-N-(ethoxycarbonylpropyl)prolyl)amino)propyl-bicyclo(2.2.1)heptan-1-yl)methanesulfonyl)-4-(2-methylphenyl)piperazine]	0.1
Cc1ccccc1N1CCN(C(=O)C2C3CCC(C)(C2NC(=O)Cc2c[nH]cn2)C3(C)C)CC1 (stereo not drawn) [Example 13, 1-(2-Methylphenyl)-4-[(4,7,7-trimethyl-3-(2-(4-imidazolyl))acetylaminobicyclo[2.21]hept-2-yl)carbonyl]-piperazine]	0.0333
Cc1ccccc1N1CCN(C(=O)C2C3CCC(C)(C2NC(=O)C(O)CO)C3(C)C)CC1 (stereo not drawn) [Example 18, 1-(2-methylphenyl)-4-[(4,7,7-trimethyl-3-(2,3-dihydroxy)propionylaminobicyclo[2.2.1]hept-2-yl)carbonyl]-piperazine]	0.12
COC(=O)CCN1CCC(C(=O)NCC(C)C2(O)CC3CCC2(CS(=O)(=O)N2CCN(c4ccccc4C)CC2)C3(C)C)CC1 (stereo not drawn) [Example 91, 1-((7,7-Dimethyl-2-exo-hydroxy-2-endo-2-(1-(4-(1-methoxycarbonylethyl)-piperidinylcarbonyl)-amino)propylbicyclo(2.2.1)heptan-1-yl)methane-sulfonyl)-4-(2-methylphenyl)piperazine]	0.054
Cc1ccccc1N1CCN(S(=O)(=O)CC23CCC(CC2C(=O)NCCc2c[nH]cn2)C3(C)C)CC1 (stereo not drawn) [Example 61, 1-((7,7-Dimethyl-2-endo-(4-imidazolyl)ethylamino-carbonyl-bicyclo-(2.2.1)heptan-1-yl)methanesulfonyl)-4-(2-methylphenyl)piperazine]	0.035
Cc1ccccc1N1CCN(S(=O)(=O)CC23CCC(CC2(O)C(C)CNC(=O)[C@@H]2CCCN2CCC(=O)O)C3(C)C)CC1 (stereo partly drawn) [Example 82, 1-((7,7-Dimethyl-2-exo-hydroxy-2-endo-2-(1-(1-N-(carboxyethyl)prolyl)amino)propyl-bicyclo(2.2.1)-heptan-1-yl)methanesulfonyl)-4-(2-methylphenyl)piperazine]	0.015

The remaining lines, values ahead:

IC50 [µM]	SMILES
0.18	Cc1ccccc1N1CCN(S(=O)(=O)C[C@]23CC[C@H](C[C@]2(O)C(C)CN)C3(C)C)CC1 (stereo partly drawn) [Example 39]
0.03	Cc1ccccc1N1CCN(S(=O)(=O)CC23CCC(CC2(O)C(C)CNC(=O)C2CCCNC2)C3(C)C)CC1 (stereo not drawn) [Example 83, 1-((7,7-Dimethyl-2-exo-hydroxy-2-endo-2-(1-(3-piperidinylcarbonyl)amino)propyl-bicyclo(2.2.1)heptan-1-yl)methanesulfonyl)-4-(2-methylphenyl)piperazine]
0.15	Cc1ccccc1N1CCN(S(=O)(=O)C[C@]23CC[C@H](C[C@]2(O)C(C)C#N)C3(C)C)CC1 (stereo partly drawn) [Example 38, 1-((7,7-Dimethyl-2-exo-hydroxy-2-endo-(1-cyano)ethyl-bicyclo(2.2.1)heptan-1-yl)methanesulfonyl)-4-(2-methylphenyl)piperazine]
0.054	COC(=O)CCN(CCC(=O)OC)CC(C)[C@@]1(O)C[C@H]2CC[C@]1(CS(=O)(=O)N1CCN(c3ccccc3C)CC1)C2(C)C (stereo partly drawn) [Example 47, 1-((7,7-dimethyl-2-exo-hydroxy-2-endo-2-(1-bis-(2-methoxycarbonylethyl)amino)propyl-bicyclo(2.2.1)heptan-1-yl)methanesulfonyl)-4-(2-methylphenyl)piperazine]

Same assay, conditions: read-out: % inhibition at 100 nM

inhibition at 0.1 µM [%]	SMILES
91	Cc1ccccc1N1CCN(S(=O)(=O)CC23CCC(CC2N)C3(C)C)CC1 (stereo not drawn) [Example 70, 1-((7,7-Dimethyl-2-endo-amino-bicyclo(2.2.1)heptan-1-yl)methanesulfonyl)-4-(2-methylphenyl)-piperazine]
35	Cc1ccccc1N1CCN(S(=O)(=O)CC23CCC(CC2(O)C(C)CNCc2ccncc2)C3(C)C)CC1 (stereo not drawn) [Example 63, 1-((7,7-Dimethyl-2-exo-hydroxy-2-endo-2-(1-(4-pyridinyl)methylamino)-propyl-bicyclo(2.2.1)heptan-1-yl)methanesulfonyl)-4-(2-methylphenyl)-piperazine]

Same assay, conditions: read-out: % inhibition at 110 nM

inhibition at […] [%]	SMILES
66	Cc1ccccc1N1CCN(S(=O)(=O)CC23CCC(CC2(O)C(C)CNC(=O)C2CCCN(CC(=O)O)C2)C3(C)C)CC1 (stereo not drawn) [Example 87, 1-((7,7-Dimethyl-2-exo-hydroxy-2-endo-2-(1-(3-(1-carboxymethyl)piperidinylcarbonyl)amino)-propylbicyclo(2.2.1)heptan-1-yl)methanesulfonyl)-4-(2-methylphenyl)piperazine]

Same assay, conditions: read-out: % inhibition at 1000 nM

inhibition at 1 µM [%]	SMILES
54	Cc1ccccc1N1CCN(S(=O)(=O)CC23CCC(CC2NC(=O)[C@H](CCS(C)(=O)=O)N(C)C)C3(C)C)CC1 (stereo partly drawn) [Example 74, 1-((7,7-Dimethyl-2-endo-(2S-(dimethylamino)-4-(methylsulfonyl)butyramido)-bicyclo(2.2.1)heptan-1-yl)methanesulfonyl)-4-(2-methylphenyl)piperazine]
75	Cc1ccccc1N1CCN(S(=O)(=O)C[C@]23CC[C@H](CC2=CCNC(=O)Cc2c[nH]cn2)C3(C)C)CC1 [Example 53, 1-((7,7-dimethyl-2-(2-(4(5)-imidazolylacetyl)amino)-ethylidine-bicyclo(2.2.1)heptan-1-yl)methane-sulfonyl)-4-(2-methylphenyl)piperazine]
72	Cc1ccccc1N1CCN(S(=O)(=O)C[C@]23CC[C@H](C[C@]2(O)CNCC(C)C)C3(C)C)CC1 [Example 55, 1-((7,7-Dimethyl-2-exo-hydroxy-2-endo-isobutylamino-methylbicyclo(2.2.1)heptan-1-yl)methanesulfonyl)-4-(2-methylphenyl)piperazine]
37	Cc1ccccc1N1CCN(S(=O)(=O)CC23CCC(CC2=O)C3(C)C)C(C)C1=O (stereo not drawn) [Example 67, 1-((7,7-Dimethyl-2-oxo-bicyclo(2.2.1)heptan-1-yl)-methanesulfonyl)-4-(2-methylphenyl)-2-methyl-3-piperazinone]

Same assay, conditions: read-out: % inhibition at 10,000 nM

inhibition at 10 µM [%]	SMILES
16	CC(=O)NC(CC=C1CC2CCC1(CS(=O)(=O)N1CCN(c3ccccc3C)CC1)C2(C)C)C(=O)O (stereo not drawn) [Example 65, 1-((7,7-Dimethyl-2-(3-acetamido-3-carboxy)propylidine-bicyclo(2.2.1)heptan-1-1 methanesulfonyl)-4-2-methylphenyl)piperazine]
